Results as given in patent US20170320870A1 (Medical Research Council Technology, priority 2009, published 2017).
pIC50: −log10 of the molar value.

Biological target: T1, LRRK2 wild type (recombinant human, catalytic domain amino acids 970-2527, GST-tagged) (Homo sapiens, UniProt Q5S007)
T1 construct: The wild type used was recombinant human, catalytic domain (amino acids 970-2527) GST-tagged, expressed in insect cells; GST; purchased Invitrogen Corporation PV4873; host or cells: insect cells
Assay: LRRK2 wild type protein kinase assay ([γ-33P] ATP, peptide substrate […]), IC50
Format: biochemical
Conditions: LRRK2 (variant not given); read-out: Potency score, LRRK2 IC50
Outline: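 IC50 derived from duplicate 10-point titrations, with 33P incorporation into a 100 μM peptide counted after P81 filter capture. Roughly 5 nM unactivated kinase reacted with Mg/[γ-33P]ATP for 180 min at room temperature (~21 °C), pH 7.5 Tris buffer containing 10 mM MgCl2, EGTA and DTT; acid-quenched.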

T1 sequence (Q5S007 970-2527): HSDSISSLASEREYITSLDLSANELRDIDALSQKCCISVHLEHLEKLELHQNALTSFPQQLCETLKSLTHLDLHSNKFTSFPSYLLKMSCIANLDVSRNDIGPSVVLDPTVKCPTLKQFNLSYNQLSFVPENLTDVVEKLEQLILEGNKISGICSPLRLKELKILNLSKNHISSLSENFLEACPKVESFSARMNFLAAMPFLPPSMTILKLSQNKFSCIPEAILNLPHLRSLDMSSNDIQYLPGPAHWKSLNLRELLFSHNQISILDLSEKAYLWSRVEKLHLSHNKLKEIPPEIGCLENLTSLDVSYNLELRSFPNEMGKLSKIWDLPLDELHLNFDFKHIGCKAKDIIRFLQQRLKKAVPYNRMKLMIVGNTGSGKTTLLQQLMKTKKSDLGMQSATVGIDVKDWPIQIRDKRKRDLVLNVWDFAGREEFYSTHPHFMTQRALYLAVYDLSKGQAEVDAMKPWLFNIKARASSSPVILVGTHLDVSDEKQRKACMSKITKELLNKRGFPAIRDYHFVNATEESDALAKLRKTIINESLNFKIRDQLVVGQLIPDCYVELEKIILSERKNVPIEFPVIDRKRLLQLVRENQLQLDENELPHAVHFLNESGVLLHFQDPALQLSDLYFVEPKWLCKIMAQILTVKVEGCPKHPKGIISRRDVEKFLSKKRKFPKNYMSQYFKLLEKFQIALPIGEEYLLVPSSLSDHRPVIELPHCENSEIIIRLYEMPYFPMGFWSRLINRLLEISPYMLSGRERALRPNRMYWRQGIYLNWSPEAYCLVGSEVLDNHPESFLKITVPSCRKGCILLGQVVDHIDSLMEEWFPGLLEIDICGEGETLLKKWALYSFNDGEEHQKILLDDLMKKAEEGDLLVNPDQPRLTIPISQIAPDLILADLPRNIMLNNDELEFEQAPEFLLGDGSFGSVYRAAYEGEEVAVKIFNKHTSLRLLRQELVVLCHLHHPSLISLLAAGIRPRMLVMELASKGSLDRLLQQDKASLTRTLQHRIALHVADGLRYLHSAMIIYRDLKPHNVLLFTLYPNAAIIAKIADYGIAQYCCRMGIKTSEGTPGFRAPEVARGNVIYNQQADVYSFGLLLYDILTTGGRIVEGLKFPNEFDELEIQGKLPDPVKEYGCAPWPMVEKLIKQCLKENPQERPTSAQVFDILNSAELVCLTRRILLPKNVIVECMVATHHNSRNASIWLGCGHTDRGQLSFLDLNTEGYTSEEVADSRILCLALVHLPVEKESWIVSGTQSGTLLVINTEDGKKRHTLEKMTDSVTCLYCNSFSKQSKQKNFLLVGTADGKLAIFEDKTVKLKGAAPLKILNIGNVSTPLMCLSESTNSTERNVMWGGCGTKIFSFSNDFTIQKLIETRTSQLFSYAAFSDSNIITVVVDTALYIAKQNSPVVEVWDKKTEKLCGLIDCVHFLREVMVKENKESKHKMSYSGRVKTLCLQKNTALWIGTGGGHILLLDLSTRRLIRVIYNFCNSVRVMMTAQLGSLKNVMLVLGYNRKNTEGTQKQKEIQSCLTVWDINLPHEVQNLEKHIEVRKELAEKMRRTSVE

SMILES	pIC50
CC(=O)Nc1cccc(NC(=O)c2ccc(CCc3n[nH]c4ccnc(NC5CCCCC5)c34)cc2)c1 [Example 255, N-(3-Acetylamino-phenyl)-4-[2-(4-cyclohexylamino-1H-pyrazolo[4,3-c]pyridin-3-yl)-ethyl]-benzamide]	> 7.00
O=C(Nc1ccncc1)c1ccc(CCc2n[nH]c3ccnc(NC4CCCCC4)c23)cc1 [Example 256, 4-[2-(4-Cyclohexylamino-1H-pyrazolo[4,3-c]pyridin-3-yl)-ethyl]-N-pyridin-4-yl-benzamide]	> 7.00
O=C(CCc1n[nH]c2ccnc(O)c12)N1CCC[C@H](c2ccccc2)C1 [Example 257, 3-(4-Hydroxy-1H-pyrazolo[4,3-c]pyridin-3-yl)-1-((R)-3-phenyl-piperidin-1-yl)-propan-1-one]	5.00 to 6.00
COc1nccc2[nH]nc(/C=C/C(=O)N3CCC[C@@H](C)C3)c12 [Example 259, (E)-3-(4-Methoxy-1H-pyrazolo[4,3-c]pyridin-3-yl)-1-((R)-3-methyl-piperidin-1-yl)-propenone]	> 7.00
COc1nccc2[nH]nc(CCC(=O)N3CCC[C@H](c4ccccc4)C3)c12 [Example 260, 3-(4-Methoxy-1H-pyrazolo[4,3-c]pyridin-3-yl)-1-((R)-3-phenyl-piperidin-1-yl)-propan-1-one]	6.00 to 7.00
O=C(/C=C/c1n[nH]c2ccnc(OC3CCCCC3)c12)N1CCC[C@H](c2ccccc2)C1 [Example 261, (E)-3-(4-Cyclohexyloxy-1H-pyrazolo[4,3-c]pyridin-3-yl)-1-((R)-3-phenyl-piperidin-1-yl)-propenone]	> 7.00
CC(=O)Nc1ccc(CCc2n[nH]c3ccnc(NC4CCCCC4)c23)cc1 [Example 262, N-{4-[2-(4-Cyclohexylamino-1H-pyrazolo[4,3-c]pyridin-3-yl)-ethyl]-phenyl}-acetamide]	> 7.00
CC(C)C(=O)Nc1ccc(CCc2n[nH]c3ccnc(NC4CCCCC4)c23)cc1 [Example 263, N-{4-[2-(4-Cyclohexylamino-1H-pyrazolo[4,3-c]pyridin-3-yl)-ethyl]-phenyl}-isobutyramide]	6.00 to 7.00
CC(=O)Nc1ccc(C(=O)Nc2ccc(CCc3n[nH]c4ccnc(NC5CCCCC5)c34)cc2)cc1 [Example 264, 4-Acetylamino-N-{4-[2-(4-cyclohexylamino-1H-pyrazolo[4,3-c]pyridin-3-yl)-ethyl]-phenyl}-benzamide]	> 7.00
O=C(Nc1ccc(CCc2n[nH]c3ccnc(NC4CCCCC4)c23)cc1)c1ccccn1 [Example 265, Pyridine-2-carboxylic acid {4-[2-(4-cyclohexylamino-1H-pyrazolo[4,3-c]pyridin-3-yl)-ethyl]-phenyl}-amide]	> 7.00
O=C(Nc1ccc(CCc2n[nH]c3ccnc(NC4CCCCC4)c23)cc1)c1cccnc1 [Example 266, N-{4-[2-(4-Cyclohexylamino-1H-pyrazolo[4,3-c]pyridin-3-yl)-ethyl]-phenyl}-nicotinamide]	> 7.00
O=C(Nc1ccc(CCc2n[nH]c3ccnc(NC4CCCCC4)c23)cc1)c1ccncc1 [Example 267, N-{4-[2-(4-Cyclohexylamino-1H-pyrazolo[4,3-c]pyridin-3-yl)-ethyl]-phenyl}-isonicotinamide]	> 7.00
O=C(Nc1ccc(CCc2n[nH]c3ccnc(NC4CCCCC4)c23)cc1)c1cocn1 [Example 268, Oxazole-4-carboxylic acid {4-[2-(4-cyclohexylamino-1H-pyrazolo[4,3-c]pyridin-3-yl)-ethyl]-phenyl}-amide]	> 7.00
Cn1cnc(C(=O)Nc2ccc(CCc3n[nH]c4ccnc(NC5CCCCC5)c34)cc2)c1 [Example 269, 1-Methyl-1H-imidazole-4-carboxylic acid {4-[2-(4-cyclohexylamino-1H-pyrazolo[4,3-c]pyridin-3-yl)-ethyl]-phenyl}-amide]	> 7.00
O=C(Nc1ccc(CCc2n[nH]c3ccnc(NC4CCCCC4)c23)cc1)c1ccc2nccnc2c1 [Example 270, Quinoxaline-6-carboxylic acid {4-[2-(4-cyclohexylamino-1H-pyrazolo[4,3-c]pyridin-3-yl)-ethyl]-phenyl}-amide]	> 7.00
CN1CCC(C(=O)Nc2ccc(CCc3n[nH]c4ccnc(NC5CCCCC5)c34)cc2)CC1 [Example 271, 1-Methyl-piperidine-4-carboxylic acid {4-[2-(4-cyclohexylamino-1H-pyrazolo[4,3-c]pyridin-3-yl)-ethyl]-phenyl}-amide]	6.00 to 7.00
Cc1n[nH]c2ccnc(OCC(C)C)c12 [Example 280, 4-Isobutoxy-3-methyl-1H-pyrazolo[4,3-c]pyridine]	> 7.00
Cc1n[nH]c2ccnc(OC3CCC3)c12 [Example 281, 4-Cyclobutoxy-3-methyl-1H-pyrazolo[4,3-c]pyridine]	6.00 to 7.00
Cc1n[nH]c2ccnc(OCCC(C)C)c12 [Example 282, 3-Methyl-4-(3-methyl-butoxy)-1H-pyrazolo[4,3-c] pyridine]	6.00 to 7.00
CC[C@H](C)COc1nccc2[nH]nc(C)c12 [Example 284, 3-Methyl-4-((S)-2-methyl-butoxy)-1H-pyrazolo[4,3-c]pyridine]	> 7.00
CCC[C@H](C)Oc1nccc2[nH]nc(C)c12 [Example 285, 3-Methyl-4-((S)-1-methyl-butoxy)-1H-pyrazolo[4,3-c]pyridine]	6.00 to 7.00
CCC[C@@H](C)Oc1nccc2[nH]nc(C)c12 [Example 286, 3-Methyl-4-((R)-1-methyl-butoxy)-1H-pyrazolo[4,3-c]pyridine]	6.00 to 7.00
CO[C@@H](C)COc1nccc2[nH]nc(C)c12 [Example 287]	5.00 to 6.00

The next lines start with the values.

pIC50	SMILES
> 7.00	COCC(=O)Nc1ccc(CCc2n[nH]c3ccnc(NC4CCCCC4)c23)cc1 [Example 272, N-{4-[2-(4-Cyclohexylamino-1H-pyrazolo[4,3-c]pyridin-3-yl)-ethyl]-phenyl}-2-methoxy-acetamide]
> 7.00	O=C(COc1ccccc1)Nc1ccc(CCc2n[nH]c3ccnc(NC4CCCCC4)c23)cc1 [Example 273, N-{4-[2-(4-Cyclohexylamino-1H-pyrazolo[4,3-c]pyridin-3-yl)-ethyl]-phenyl}-2-phenoxy-acetamide]
> 7.00	O=C(Nc1ccc(CCc2n[nH]c3ccnc(NC4CCCCC4)c23)cc1)C1CC1 [Example 274, Cyclopropanecarboxylic acid {4-[2-(4-cyclohexylamino-1H-pyrazolo[4,3-c]pyridin-3-yl)-ethyl]-phenyl}-amide]
> 7.00	O=C(Nc1ccc(CCc2n[nH]c3ccnc(NC4CCCCC4)c23)cc1)c1cccc(F)c1 [Example 275, N-{4-[2-(4-Cyclohexylamino-1H-pyrazolo[4,3-c]pyridin-3-yl)-ethyl]-phenyl}-3-fluoro-benzamide]
> 7.00	N#Cc1cccc(C(=O)Nc2ccc(CCc3n[nH]c4ccnc(NC5CCCCC5)c34)cc2)c1 [Example 276, 3-Cyano-N-{4-[2-(4-cyclohexylamino-1H-pyrazolo[4,3-c]pyridin-3-yl)-ethyl]-phenyl}-benzamide]
> 7.00	Cc1n[nH]c2ccnc(OC(C)C)c12 [Example 277, 4-isopropoxy-3-methyl-1H-pyrazolo[4,3-c]pyridine]
6.00 to 7.00	Cc1n[nH]c2ccnc(OCC3CCCCC3)c12 [Example 278, 4-Cyclohexyl-methoxy-3-methyl-1H-pyrazolo[4,3-c] pyridine]
6.00 to 7.00	Cc1n[nH]c2ccnc(OCC(F)(F)F)c12 [Example 279, 3-Methyl-4-(2,2,2-trifluoro-ethoxy)-1H-pyrazolo [4,3-c]pyridine]
> 7.00	Cc1n[nH]c2ccnc(OC3CCCCCC3)c12 [Example 283, 4-Cycloheptyloxy-3-methyl-1H-pyrazolo[4,3-c] pyridine]
> 7.00	Cc1n[nH]c2ccnc(O[C@H](C)C(C)C)c12 [Example 288, 4-((R)-1,2-Dimethyl-propoxy)-3-methyl-1H-pyrazolo [4,3-c]pyridine]
6.00 to 7.00	Cc1n[nH]c2ccnc(OC3CCCC3(C)C)c12 (stereo not shown) [Example 289, 4-(2,2-Dimethyl-cyclopentyloxy)-3-methyl-1H-pyrazolo[4,3-c]pyridine]
6.00 to 7.00	Cc1n[nH]c2ccnc(OCc3ccccc3)c12 [Example 290, 4-Benzyloxy-3-methyl-1H-pyrazolo[4,3-c]pyridine]
6.00 to 7.00	Cc1n[nH]c2ccnc(O[C@@H](C)C(C)C)c12 [Example 292, 4-((S)-1,2-Dimethyl-propoxy)-3-methyl-1H-pyrazolo [4,3-c]pyridine]
> 7.00	Cc1n[nH]c2ccnc(O[C@H]3CC[C@H](C)CC3)c12 [Example 294, Trans-3-Methyl-4-(4-methyl-cyclohexyloxy)-1H-pyrazolo[4,3-c]pyridine]
6.00 to 7.00	Cc1n[nH]c2ccnc(OCCC(F)(F)F)c12 [Example 295, 3-Methyl-4-(3,3,3-trifluoro-propoxy)-1H-pyrazolo[4,3-c]pyridine]
6.00 to 7.00	Cc1n[nH]c2ccnc(O[C@@H]3CCOC3)c12 [Example 297, 3-Methyl-4-[(R)-(tetrahydro-furan-3-yl)oxy]-1H-pyrazolo[4,3-c]pyridine]
> 7.00	Cc1n[nH]c2ccnc(O[C@H](C)Cc3ccccc3)c12 [Example 299, 3-Methyl-4-((R)-1-methyl-2-phenyl-ethoxy)-1H-pyrazolo[4,3-c]pyridine]
6.00 to 7.00	Cc1n[nH]c2ccnc(O[C@@H](C)Cc3ccccc3)c12 [Example 300, 3-Methyl-4-((S)-1-methyl-2-phenyl-ethoxy)-1H-pyrazolo[4,3-c]pyridine]
5.00 to 6.00	Cc1n[nH]c2ccnc(NCCCO)c12 [Example 301, 3-(3-Methyl-1H-pyrazolo[4,3-c]pyridin-4-ylamino)-propan-1-ol]
5.00 to 6.00	CC(=O)NCCNc1nccc2[nH]nc(C)c12 [Example 302, N-[2-(3-Methyl-1H-pyrazolo[4,3-c]pyridin-4-ylamino)-ethyl]-acetamide]
